The assay deals with T1, LKB1 (Homo sapiens, UniProt Q15831+Q7RTN6).
T1 sequence (Q15831 1-433): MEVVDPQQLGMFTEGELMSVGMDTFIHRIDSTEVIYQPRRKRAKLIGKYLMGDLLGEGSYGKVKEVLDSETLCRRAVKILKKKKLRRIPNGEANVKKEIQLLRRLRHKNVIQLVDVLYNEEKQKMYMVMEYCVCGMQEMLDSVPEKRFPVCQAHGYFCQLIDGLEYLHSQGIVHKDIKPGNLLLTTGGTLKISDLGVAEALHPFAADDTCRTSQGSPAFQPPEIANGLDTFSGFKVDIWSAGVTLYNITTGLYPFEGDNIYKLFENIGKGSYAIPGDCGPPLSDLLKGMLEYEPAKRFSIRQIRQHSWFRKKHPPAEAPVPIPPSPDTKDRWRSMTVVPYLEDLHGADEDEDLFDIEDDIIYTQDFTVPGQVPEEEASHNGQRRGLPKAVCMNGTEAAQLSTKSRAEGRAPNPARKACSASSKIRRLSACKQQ
T1 sequence (Q7RTN6 1-431): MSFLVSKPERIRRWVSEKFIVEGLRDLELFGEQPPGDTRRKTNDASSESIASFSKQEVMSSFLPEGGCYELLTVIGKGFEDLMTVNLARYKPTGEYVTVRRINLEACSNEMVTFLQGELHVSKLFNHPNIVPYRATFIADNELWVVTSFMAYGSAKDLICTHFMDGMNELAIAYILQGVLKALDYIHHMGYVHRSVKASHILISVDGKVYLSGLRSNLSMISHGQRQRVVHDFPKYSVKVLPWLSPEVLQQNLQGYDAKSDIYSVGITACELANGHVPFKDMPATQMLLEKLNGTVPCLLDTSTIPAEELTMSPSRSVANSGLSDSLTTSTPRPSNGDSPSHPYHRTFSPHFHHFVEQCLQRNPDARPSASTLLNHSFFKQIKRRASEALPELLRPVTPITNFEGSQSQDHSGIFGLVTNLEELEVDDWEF
T1 sequence (Q9Y376 1-341 partner): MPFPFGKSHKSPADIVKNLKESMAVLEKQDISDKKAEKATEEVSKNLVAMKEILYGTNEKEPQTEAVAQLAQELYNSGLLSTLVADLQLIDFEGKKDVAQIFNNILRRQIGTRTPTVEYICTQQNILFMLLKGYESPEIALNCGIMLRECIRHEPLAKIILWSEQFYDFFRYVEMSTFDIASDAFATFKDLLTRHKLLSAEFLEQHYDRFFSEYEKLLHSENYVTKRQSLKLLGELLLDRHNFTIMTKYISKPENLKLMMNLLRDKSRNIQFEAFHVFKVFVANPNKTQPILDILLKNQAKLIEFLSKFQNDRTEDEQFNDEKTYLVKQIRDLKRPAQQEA
Put plainly: in vitro LKB1 functional activity. The class given is biochemical. As to conditions: APA analogs.

The text below walks through data of patent US12195490B2, “STRAD-binding agents and uses thereof” (The Regents of the University of California, priority 2020, dated 2025).

As to `CCOP(=O)(CS(=O)(=O)c1ccc(NC(=O)c2nc(-c3ccc(C)cc3)cnc2N)cc1F)OCC` [SU20668-0482, diethyl (4-(3-amino-6-p-tolylpyrazine-2-carboxamido)-2-fluorophenylsulfonyl)methylphosphonate], the “LKB1 % Act. Increase” value was “D (D=<1000%)”.

As for `Cc1ccc(-c2cnc(N)c(C(=O)Nc3ccc(C(=O)O)c(F)c3)n2)cc1` [SU20668-0299, 4-(3-amino-6-p-tolylpyrazine-2-carboxamido)-2-fluorobenzoic acid], the “LKB1 % Act. Increase” value is reported as “D (D=<1000%)”. The result for `CC(=O)NS(=O)(=O)c1ccc(NC(=O)c2nc(-c3ccncc3F)cnc2N)cc1` [SU20668-0374, N-(4-(N-acetylsulfamoyl)phenyl)-3-amino-6-(3-fluoropyridin-4-yl)pyrazine-2-carboxamide] reads “C (C=199-1000%)”. The result for `CC(=O)NS(=O)(=O)c1ccc(NC(=O)c2nc(-c3ccc(S(N)(=O)=O)cc3)cnc2N)cc1` [SU20668-0351, N-(4-(N-acetylsulfamoyl)phenyl)-3-amino-6-(4-sulfamoylphenyl)pyrazine-2-carboxamide] reads “C (C=199-1000%)”.

As to `CCOP(=O)(NS(=O)(=O)c1ccc(NC(=O)c2nc(-c3ccc(C)cc3)cnc2N)cc1)OCC` [SU20668-0475, diethyl 4-(3-amino-6-p-tolylpyrazine-2-carboxamido)phenylsulfonylphosphoramidate], the “LKB1 % Act. Increase” value is on record as “B (B=399-2000%)”. Under `CC(=O)NS(=O)(=O)c1ccc(NC(=O)c2nc(-c3cccc(N)c3)cnc2N)cc1` [SU20668-0350, N-(4-(N-acetylsulfamoyl)phenyl)-3-amino-6-(3-aminophenyl)pyrazine-2-carboxamide] stands “D (D=<1000%)”; under `Cc1ccc(-c2cnc(N)c(C(=O)Nc3cnc(S(C)(=O)=O)nc3)n2)cc1` [SU20668-0303, 3-amino-N-(2-(methylsulfonyl)pyrimidin-5-yl)-6-p-tolylpyrazine-2-carboxamide], “D (D=<1000%)”; under `Cc1ccc(-c2cnc(N)c(C(=O)Nc3ccc(S(=O)(=O)NC(=O)C(C)C)cc3)n2)cc1` [SU20668-0327, 3-amino-N-(4-(N-isobutyrylsulfamoyl)phenyl)-6-p-tolylpyrazine-2-carboxamide], “D (D=<1000%)”. Under `Cc1ccc(-c2cnc(N)c(C(=O)Nc3ccc(S(=O)(=O)NC(=O)CCc4ccccc4)cc3)n2)cc1` [SU20668-0328, 3-amino-N-(4-(N-(3-phenylpropanoyl)sulfamoyl)phenyl)-6-p-tolylpyrazine-2-carboxamide] stands “D (D=<1000%)”; under `Cc1ccc(-c2cnc(N)c(C(=O)Nc3ccc(S(=O)(=O)Nc4cc(C)on4)cc3)n2)cc1` [SU20668-0467, 3-amino-N-(4-(N-(5-methylisoxazol-3-yl)sulfamoyl)phenyl)-6-p-tolylpyrazine-2-carboxamide], “C (C=199-1000%)”; under `CCC(=O)NS(=O)(=O)c1ccc(NC(=O)c2nc(-c3ccc(C)cc3)cnc2N)cc1` [SU20668-0325, 3-amino-N-(4-(N-propionylsulfamoyl)phenyl)-6-p-tolylpyrazine-2-carboxamide], “C (C=199-1000%)”. Under `COP(=O)(OC)C(C)S(=O)(=O)c1ccc(NC(=O)c2nc(-c3ccc(C)cc3)cnc2N)cc1` (stereo not shown) [SU20668-0516, dimethyl 1-(4-(3-amino-6-p-tolylpyrazine-2-carboxamido)phenylsulfonyl)ethylphosphonate] stands “A (A=>4000%)”; under `CCOP(=O)(CS(=O)(=O)c1ccc(NC(=O)c2nc(-c3ccc(C(F)(F)F)cc3)cnc2N)cc1)OCC` [SU20668-0488, diethyl (4-(3-amino-6-(4-(trifluoromethyl)phenyl)pyrazine-2-carboxamido)phenylsulfonyl)methylphosphonate], “D (D=<1000%)”; under `COP(=O)(CS(=O)(=O)c1ccc(NC(=O)c2nc(-c3ccc(C)s3)cnc2N)cc1)OC` [SU20668-0448, dimethyl (4-(3-amino-6-(5-methylthiophen-2-yl)pyrazine-2-carboxamido)phenylsulfonyl)methylphosphonate], “C (C=199-1000%)”. Turning to `CC(=O)NS(=O)(=O)c1ccc(NC(=O)c2nc(-c3cccc(N4CCOCC4)c3)cnc2N)cc1` [SU20668-0377, N-(4-(N-acetylsulfamoyl)phenyl)-3-amino-6-(3-morpholinophenyl)pyrazine-2-carboxamide], the “LKB1 % Act. Increase” value is on record as “D (D=<1000%)”. Under `Cc1ccc(-c2cnc(N)c(C(=O)Nc3ccc(C(=O)NS(C)(=O)=O)cc3)n2)cc1` [SU20668-0478, 3-amino-N-(4-(methylsulfonylcarbamoyl)phenyl)-6-p-tolylpyrazine-2-carboxamide] stands “D (D=<1000%)”. On to `CCO[P@](C)(=O)CS(=O)(=O)c1ccc(NC(=O)c2nc(-c3ccc(C)cc3)cnc2N)cc1` [SU20668-0518, (S)-ethyl (4-(3-amino-6-p-tolylpyrazine-2-carboxamido)phenylsulfonyl)methyl(methyl)phosphinate], for which the “LKB1 % Act. Increase” value is on record as “B (B=399-2000%)”.

Consider `CC(=O)NS(=O)(=O)c1ccc(NC(=O)c2nc(-c3ccc(OC(F)(F)F)cc3)cnc2N)cc1` [SU20668-0392, N-(4-(N-acetylsulfamoyl)phenyl)-3-amino-6-(4-(trifluoromethoxy)phenyl)pyrazine-2-carboxamide], for which the “LKB1 % Act. Increase” value is on record as “D (D=<1000%)”.

In the case of `CC(=O)NS(=O)(=O)c1ccc(NC(=O)c2nc(-c3cccc(C(N)=O)c3)cnc2N)cc1` [SU20668-0341, N-(4-(N-acetylsulfamoyl)phenyl)-3-amino-6-(3-carbamoylphenyl)pyrazine-2-carboxamide], the “LKB1 % Act. Increase” value is “D (D=<1000%)”. `Cc1ccc(-c2cnc(N)c(C(=O)Nc3ccc(S(=O)(=O)CC4CCO4)cc3)n2)cc1` (stereo not shown) [SU20668-0500, 3-amino-N-(4-(oxetan-2-ylmethylsulfonyl)phenyl)-6-p-tolylpyrazine-2-carboxamide]: the “LKB1 % Act. Increase” value is “B (B=399-2000%)”. Under `CC(=O)NS(=O)(=O)c1ccc(NC(=O)c2nc(-c3ccc(N4CCN(C)CC4)cc3)cnc2N)cc1` [SU20668-0347, N-(4-(N-acetylsulfamoyl)phenyl)-3-amino-6-(4-(4-methylpiperazin-1-yl)phenyl)pyrazine-2-carboxamide] stands “C (C=199-1000%)”.

Take `CC(=O)NS(=O)(=O)c1ccc(NC(=O)c2nc(-c3cc[nH]n3)cnc2N)cc1` [SU20668-0352, N-(4-(N-acetylsulfamoyl)phenyl)-3-amino-6-(1H-pyrazol-3-yl)pyrazine-2-carboxamide]: the “LKB1 % Act. Increase” value was “C (C=199-1000%)”. As to `Cc1ccc(-c2cnc(N)c(C(=O)Nc3ccc(CC(=O)O)cc3)n2)cc1` [SU20668-0330, 2-(4-(3-amino-6-p-tolylpyrazine-2-carboxamido)phenyl)acetic acid], the “LKB1 % Act. Increase” value is “C (C=199-1000%)”. The result for `Cc1ccc(-c2cnc(N)c(C(=O)Nc3ccc(C(N)=O)cc3)n2)cc1` [SU20668-0280, 3-amino-N-(4-carbamoylphenyl)-6-p-tolylpyrazine-2-carboxamide] reads “D (D=<1000%)”; that for `CCNP(=O)(CS(=O)(=O)c1ccc(NC(=O)c2nc(-c3ccc(C)cc3)cnc2N)cc1)OCC` (stereo not shown) [SU20668-0480, ethyl P-(4-(3-amino-6-p-tolylpyrazine-2-carboxamido)phenylsulfonyl)methyl-N-ethylphosphonamidate], “D (D=<1000%)”.
